Consider 32 compounds from patent US11071721B2, “Bicyclic amide compounds and methods of use thereof” (Genentech, Inc., priority 2016, dated 2021).

In the experiment the target is human RIP1 kinase domain (2-375) (Homo sapiens (Human), UniProt Q13546). The experiment in a line: RIP1 kinase inhibition assay (Transcreener ADP biochemical enzyme assay). To be noted: Ki app (Morrison tight-binding fit); 50 nM enzyme, 50 uM ATP, 2 hours incubation, fluorescence polarization. How it is done:
RIP1 Kinase Inhibition Assays (Biochemical Assay):
The compounds of the present invention were tested for their capacity to inhibit RIP K activity as described below.
Enzyme assay: The ability of the receptor interacting protein kinase (RIPK1) to catalyze the hydrolysis of adenosine-5′-triphosphate (ATP) is monitored using the Transcreener ADP (adenosine-5′-diphosphate) assay (BellBrook Labs). Purified human RIP1 kinase domain (2-375) (50 nM) derived from a baculovirus-infected insect cell expression system is incubated with test compounds for 2 hours in 50 mM Hepes buffer (pH 7.5) containing 30 mM MgCl2, 1 mM dithiothreitol, 50 uM ATP, 0.002% Brij-35, and 0.5% dimethyl sulfoxide (DMSO). Reactions are quenched by the addition of 1× Bell Brooks Stop buffer B (20 mM Hepes (ph7.5), 40 mM ethylenediaminetetraacetic acid and 0.02% Brij-35) containing an additional 12 mM EDTA and 55 ug/mL ADP2 antibody and 4 nM ADP-AlexaFluor® 633 tracer. The tracer bound to the antibody is displaced by the ADP generated during the RIP1K reaction, which causes a decrease in fluorescence polarization that is measured by laser excitation at 633 nm with a FP microplate reader M1000. Fractional activity was plotted against test article concentration. Using Genedata Screener software (Genedata; Basel, Switzerland), the data were fit to the tight-binding apparent inhibition constant (Ki^app) Morrison equation [Williams, J. W. and Morrison, J. F. (1979) The kinetics of reversible tight-binding inhibition. Methods Enzymol 63: 437-67]. The following equation was used to calculate fractional activity and Ki^app:
[formula] where [E]T and [I]T are the total concentrations of active enzyme and test article, respectively.

human RIP1 kinase domain (2-375), sequence (Q13546 2-375): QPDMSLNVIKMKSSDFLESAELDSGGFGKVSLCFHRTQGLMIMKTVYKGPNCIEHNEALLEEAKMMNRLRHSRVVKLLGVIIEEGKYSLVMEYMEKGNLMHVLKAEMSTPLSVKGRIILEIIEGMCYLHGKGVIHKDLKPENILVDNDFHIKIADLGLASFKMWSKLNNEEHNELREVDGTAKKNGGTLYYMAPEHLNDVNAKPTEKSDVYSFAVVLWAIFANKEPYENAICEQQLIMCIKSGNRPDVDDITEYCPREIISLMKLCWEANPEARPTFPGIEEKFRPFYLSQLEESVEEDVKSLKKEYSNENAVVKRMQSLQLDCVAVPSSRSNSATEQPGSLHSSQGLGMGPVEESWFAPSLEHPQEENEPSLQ

In turn, `O=C(c1nc2n(n1)CCOC2c1ccccc1F)N1CC(F)(F)C1` (racemic) [Example 6, (3,3-difluoroazetidin-1-yl)-[8-(2-fluorophenyl)-6,8-dihydro-5H-[1,2,4]triazolo[5,1-c][1,4]oxazin-2-yl]methanone] yielded a Ki of 722 nM. `CN(C)C(=O)c1nc2n(n1)[C@@H](c1ccccc1)C[C@H]2F` (racemic) [Example 105, rac-(5R,7R)-7-fluoro-N,N-dimethyl-5-phenyl-6,7-dihydro-5H-pyrrolo[1,2-b][1,2,4]triazole-2-carboxamide] registered a Ki of 56 nM.

In turn, `O=C(c1nc2n(n1)[C@H](c1ccccc1)C[C@@H]2F)N1CCC[C@@H]1CO` (racemic) [Example 71, [rac-(5S,7S)-7-fluoro-5-phenyl-6,7-dihydro-5H-pyrrolo[1,2-b][1,2,4]triazol-2-yl]-[rac-(2R)-2-(hydroxymethyl)pyrrolidin-1-yl]methanone] registered a Ki of 690 nM. As for `O=C(c1nc2n(n1)[C@H](c1ccccc1)C[C@@H]2F)N(CC(F)F)C1CC1` (racemic) [Example 58, rac-(5S,7S)-N-cyclopropyl-N-(2,2-difluoroethyl)-7-fluoro-5-phenyl-6,7-dihydro-5H-pyrrolo[1,2-b][1,2,4]triazole-2-carboxamide], the Ki came to 570 nM. `O=C(c1nc2n(n1)C(c1ccccc1)CC2)N1CC2CC1C2` (racemic) [Example 28, 2-azabicyclo[2.1.1]hexan-2-yl-(5-phenyl-6,7-dihydro-5H-pyrrolo[1,2-b][1,2,4]triazol-2-yl)methanone] came in with a Ki of 8900 nM. Turning to `O=C(c1nc2n(n1)[C@H](c1ccccc1)C[C@@H]2F)N1CC[C@@H]1C(F)F` (racemic) [Example 53, [rac-(2R)-2-(difluoromethyl)azetidin-1-yl]-[rac-(5S,7S)-7-fluoro-5-phenyl-6,7-dihydro-5H-pyrrolo[1,2-b][1,2,4]triazol-2-yl]methanone], the Ki was 9 nM. Under `O=C(c1nc2n(n1)C(c1ccccc1)C1CC21)N1CC(F)(F)C1` (racemic) [Example 47] stands 195 nM; under `O=C(c1nc2n(n1)[C@H](C(F)(F)F)CC2)N1CC(F)(F)C1` (racemic) [Example 49, (3,3-difluoroazetidin-1-yl)-[rac-(5S)-5-(trifluoromethyl)-6,7-dihydro-5H-pyrrolo[1,2-b][1,2,4]triazol-2-yl]methanone], 5000 nM. In turn, `O=C(c1nc2n(n1)[C@H](c1ccccc1)C[C@@H]2F)N1CC2CC1CC2(F)F` (mixture of isomers) [Example 87, (5,5-difluoro-2-azabicyclo[2.2.1]heptan-2-yl)-[rac-(5S,7S)-7-fluoro-5-phenyl-6,7-dihydro-5H-pyrrolo[1,2-b][1,2,4]triazol-2-yl]methanone] displayed a Ki of 150 nM. The compound `O=C(c1nc2n(n1)[C@H](c1ccccc1)C[C@@H]2F)N1CCCC(F)(F)C1` (racemic) [Example 79, (3,3-difluoro-1-piperidyl)-[rac-(5S,7S)-7-fluoro-5-phenyl-6,7-dihydro-5H-pyrrolo[1,2-b][1,2,4]triazol-2-yl] methanone] returned a Ki of 790 nM. Compound `O=C(c1nc2n(n1)[C@@H](c1ccccc1)CC2(F)F)N1CC(F)C1` (single isomer, unassigned) [Example 48] yielded a Ki of 71 nM. `CCC(F)(F)n1ncc2cnc(C(=O)N3CC(F)(F)C3)cc21` [Example 103] yielded a Ki of 6700 nM. Under `O=C(c1nc2n(n1)[C@H](c1ccccc1)C[C@@H]2F)N1CCC(Oc2ccccc2)C1` (mixture of isomers) [Example 77, (3-phenoxypyrrolidin-1-yl)-[rac-(5S,7S)-7-fluoro-5-phenyl-6,7-dihydro-5H-pyrrolo[1,2-b][1,2,4]triazol-2-yl]methanone] stands 61 nM; under `CN(C)C(=O)c1nc2n(n1)CCOC2c1ccccc1` (racemic) [Example 41, N,N-dimethyl-8-phenyl-6,8-dihydro-5H-[1,2,4]triazolo[5,1-c][1,4]oxazine-2-carboxamide], 8000 nM; under `O=C(c1nc2n(n1)[C@@H](c1ccccc1)C[C@H]2F)N1CCn2nccc2C1` (stereo in doubt) [Example 66, 6,7-dihydro-4H-pyrazolo[1,5-a]pyrazin-5-yl-[rac-(5R,7R)-7-fluoro-5-phenyl-6,7-dihydro-5H-pyrrolo[1,2-b][1,2,4]triazol-2-yl]methanone], 15 nM. `CNC(=O)c1nc2n(n1)C(c1ccccc1)CC2` (racemic) [Example 25, N-methyl-5-phenyl-6,7-dihydro-5H-pyrrolo[1,2-b][1,2,4]triazole-2-carboxamide] yielded a Ki of 3600 nM. `CC1(F)CN(C(=O)c2nc3n(n2)C(c2ccccc2)CC3)C1` (racemic) [Example 20, (3-fluoro-3-methyl-azetidin-1-yl)-(5-phenyl-6,7-dihydro-5H-pyrrolo[1,2-b][1,2,4]triazol-2-yl)methanone] registered a Ki of 271 nM. Compound `O=C(c1nc2n(n1)C(c1ccccc1)C1CC21)N1CC(F)C1` (racemic) [Example 46] showed a Ki of 917 nM. Compound `O=C(c1nc2n(n1)[C@@H](c1ccccc1)C[C@H]2F)N1CCc2cccnc2C1` (stereo in doubt) [Example 67, 6,8-dihydro-5H-1,7-naphthyridin-7-yl-[rac-(5R,7R)-7-fluoro-5-phenyl-6,7-dihydro-5H-pyrollo[1,2-b][1,2,4]triazol-2-yl]methanone] yielded a Ki of 5 nM. In the case of `O=C(c1nc2n(n1)[C@H](c1ccccc1)C[C@@H]2F)N1CC(C(F)F)C1` (racemic) [Example 51, [3-(difluoromethyl)azetidin-1-yl]-[rac-(5S, 7S)-7-fluoro-5-phenyl-6,7-dihydro-5H-pyrrolo[1,2-b][1,2,4]triazol-2-yl]methanone] it was 100 nM; in that of `O=C(c1nc2n(n1)[C@H](c1ccccc1F)CC2)N1CC(F)(F)C1` (single isomer, unassigned) [Example 10], greater than 10000 nM; in that of `O=C(c1nc2n(n1)CCOC2c1ccccc1)N1CC(F)(F)C1` (racemic) [Example 5, (3,3-difluoroazetidin-1-yl)-(8-phenyl-6,8-dihydro-5H-[1,2,4]triazolo[5,1-c][1,4]oxazin-2-yl)methanone], 768 nM. `O=C(c1nc2n(n1)[C@H](c1ccccc1)C[C@@H]2F)N1CC[C@H]1C(F)F` (single isomer, unassigned) [Example 52]: the Ki was determined as 5 nM. As for `O=C(c1nc2n(n1)[C@H](c1ccccc1)C[C@@H]2F)N1CCC[C@H]1C(F)(F)F` (racemic) [Example 82, [rac-(5S,7S)-7-fluoro-5-phenyl-6,7-dihydro-5H-pyrrolo[1,2-b][1,2,4]triazol-2-yl]-[rac-(2S)-2-(trifluoromethyl)pyrrolidin-1-yl]methanone], the Ki was found to be 450 nM. For the compound `CN(C)C(=O)c1nc2n(n1)CCOC2c1ccccc1F` (racemic) [Example 43, 8-(2-fluorophenyl)-N,N-dimethyl-6,8-dihydro-5H-[1,2,4]triazolo[5,1-c][1,4]oxazine-2-carboxamide], the Ki worked out at 5000 nM. For `C[C@@H]1C[C@H](F)CN1C(=O)c1nc2n(n1)[C@H](c1ccccc1)C[C@@H]2F` (racemic) [Example 70, [rac-(2R,4S)-4-fluoro-2-methyl-pyrrolidin-1-yl]-[rac-(5S,7S)-7-fluoro-5-phenyl-6,7-dihydro-5H-pyrrolo[1,2-b] [1,2,4]triazol-2-yl]methanone], the Ki was 150 nM.

Compound `CC[C@@]1(C)OCc2cnc(C(=O)N3CC(F)(F)C3)cc21` (single isomer, unassigned) [Example 7] registered a Ki of 1980 nM. In the case of `O=C(c1nc2n(n1)[C@H](c1ccccc1)C[C@@H]2F)N1CC(F)(F)C1` [Example 3, (3,3-difluoroazetidin-1-yl)-[(5S,7S)-7-fluoro-5-phenyl-6,7-dihydro-5H-pyrrolo[1,2-b][1,2,4]triazol-2-yl]methanone] it was 9 nM.

`CN(C(=O)c1nc2n(n1)[C@H](c1ccccc1)C[C@@H]2F)c1ccccc1` (racemic) [Example 90, rac-(5S,7S)-7-fluoro-N-methyl-N,5-diphenyl-6,7-dihydro-5H-pyrrolo[1,2-b][1,2,4]triazole-2-carboxamide] yielded a Ki of 620 nM. `O=C(c1nc2n(n1)[C@H](c1ccccc1)C[C@@H]2F)N1CCCC1C(F)F` (mixture of isomers) [Example 78, [2-(difluoromethyl)pyrrolidin-1-yl]-[rac-(5S, 7S)-7-fluoro-5-phenyl-6,7-dihydro-5H-pyrrolo[1,2-b][1,2,4]triazol-2-yl]methanone] displayed a Ki of 60 nM.

As for `C[C@H]1[C@@H](C(F)(F)F)CCN1C(=O)c1nc2n(n1)[C@H](c1ccccc1)C[C@@H]2F` (single isomer, unassigned) [Example 86], the Ki was 5 nM. `O=C(c1nc2n(n1)[C@H](c1ccccc1)C[C@@H]2F)N1CCC1C(F)F` (mixture of isomers) [Example 60, [2-(difluoromethyl)azetidin-1-yl]-[rac-(5S,7S)-7-fluoro-5-phenyl-6,7-dihydro-5H-pyrrolo[1,2-b][1,2,4]triazol-2-yl]methanone] gave a Ki of 17 nM.
